We go through 30 substances from patent publication US11779606B2, “Peptides and combination of peptides of non-canonical origin for use in immunotherapy against different types of cancers” (Immatics Biotechnologies GmbH, priority 2018, dated 2023).

One test relates to CD8+ T cells. As to the kind of experiment: In vitro T-cell priming assay (immunogenicity) with artificial APCs loaded with peptide/MHC complexes and anti-CD28. Type of test: cell-based, human. Conditions: CD8+ T cells of healthy HLA-A*02 donors, multimer staining. An excerpt:
In order to obtain information regarding the immunogenicity of the TUMAPs of the present invention, the inventors performed investigations using an in vitro T-cell priming assay based on repeated stimulations of CD8+ T cells with artificial antigen presenting cells (aAPCs) loaded with peptide/MHC complexes and anti-CD28 antibody.
In order to perform in vitro stimulations by artificial antigen presenting cells loaded with peptide-MHC complex (pMHC) and anti-CD28 antibody, the inventors first isolated CD8+ T cells from fresh HLA-A*02 leukapheresis products via positive selection using CD8 microbeads (Miltenyi Biotec, Bergisch-Gladbach, Germany) of healthy donors obtained from the University clinics Mannheim, Germany, after informed consent.
PBMCs and isolated CD8+ lymphocytes were incubated in T-cell medium (TCM) until use consisting of RPMI-Glutamax (Invitrogen, Karlsruhe, Germany) supplemented with 10% heat inactivated human AB serum (PAN-Biotech, Aidenbach, Germany), 100 U/ml Penicillin/100 μg/ml Streptomycin (Cambrex, Cologne, Germany), 1 mM sodium pyruvate (CC Pro, Oberdorla, Germany), 20 μg/ml Gentamycin (Cambrex). 2.5 ng/ml IL-7 (PromoCell, Heidelberg, Germany) and 10 U/ml IL-2 (Novartis Pharma, Nümberg, Germany) were also added to the TCM at this step.
Generation of pMHC/anti-CD28 coated beads, T-cell stimulations and readout was performed in a highly defined in vitro system using four different pMHC molecules per stimulation condition and 8 different pMHC molecules per readout condition.
The purified co-stimulatory mouse IgG2a anti human CD28 Ab 9.3 (Jung et al., 1987) was chemically biotinylated using Sulfo-N-hydroxysuccinimidobiotin as recommended by the manufacturer (Perbio, Bonn, Germany). Beads used were 5.6 μm diameter streptavidin coated polystyrene particles (Bangs Laboratories, Illinois, USA).
800.000 beads/200 μl were coated in 96-well plates in the presence of 4×12.5 ng different biotin-pMHC, washed and 600 ng biotin anti-CD28 were added subsequently in a volume of 200 μl. Stimulations were initiated in 96-well plates by co-incubating […] CD8+ T cells with 2×10^5 washed coated beads in 200 μl TCM supplemented with 5 ng/ml IL-12 (PromoCell) for 3 days at 37° C. Half of the medium was then exchanged by fresh TCM supplemented with 80 U/ml IL-2 and incubating was continued for 4 days at 37° C. This stimulation cycle was performed for a total of three times. For the pMHC multimer readout using 8 different pMHC molecules per condition, a two-dimensional combinatorial coding approach was used as previously described (Andersen et al., 2012) with minor modifications encompassing coupling to 5 different fluorochromes. Finally, multimeric analyses were performed by staining the cells with Live/dead near IR dye (Invitrogen, Karlsruhe, Germany), CD8-FITC antibody clone SK1 (BD, Heidelberg, Germany) and fluorescent pMHC multimers. For analysis, a BD LSRII SORP cytometer equipped with appropriate lasers and filters was used. Peptide specific cells were calculated as percentage of total CD8+ cells. Evaluation of multimeric analysis was done using the FlowJo software (Tree Star, Oreg., USA). In vitro priming of specific multimer+CD8+ lymphocytes was detected by comparing to negative control stimulations.

Another test has as its target HLA-A*02:01 (Homo sapiens, UniProt P04439, D140Y/D185E/D98H/E176V/E277Q/G131W/G231S/I119V/I121R/I166T/I218V/L300P/L318F/N151K/N90K/P208A/P217A/Q86G/Q94H/R138H/R169H/T345S). The test is described as follows: MHC binding assay (UV-ligand exchange, β2m ELISA). Conditions: MHC class I binding score; peptide exchange yield, binding to HLA-A*02:01, UV-ligand exchange with β2m ELISA. The source says: Candidate peptides for T cell based therapies according to the present invention were further tested for their MHC binding capacity (affinity).
The individual peptide-MHC complexes were produced by UV-ligand exchange, where a UV-sensitive peptide is cleaved upon UV-irradiation and exchanged with the peptide of interest as analyzed. Only peptide candidates that can effectively bind and stabilize the peptide-receptive MHC molecules prevent dissociation of the MHC complexes. To determine the yield of the exchange reaction, an ELISA was performed based on the detection of the light chain (β2m) of stabilized MHC complexes. The assay was performed as generally described in Rodenko et al. (Rodenko et al., 2006).
96 well MAXISorp plates (NUNC) were coated over night with 2 ug/ml streptavidin in PBS at room temperature, washed 4× and blocked for 1h at 37° C. in 2% BSA containing blocking buffer. Refolded HLA-A*02:01/MLA-001 monomers served as standards, covering the range of 15-500 ng/ml. Peptide-MHC monomers of the UV-exchange reaction were diluted 100 fold in blocking buffer. Samples were incubated for 1 h at 37° C., washed four times, incubated with 2 ug/ml HRP conjugated anti-β2m for 1h at 37° C., washed again and detected with TMB solution that is stopped with […]. Absorption was measured at 450 nm. Candidate peptides that show a high exchange yield (preferably higher than 50%, most preferred higher than 75%) are generally preferred for a generation and production of antibodies or fragments thereof, and/or T cell receptors or fragments thereof, as they show sufficient avidity to the MHC molecules and prevent dissociation of the MHC complexes.

For “1 (KLLDFSTRI; listed as Homo sapiens) [compound 1]”, in the test with CD8+ T cells (Table 13b), the “Wells positive [%]” value is on record as “+ (<20% = +)”. In addition, the Peptide exchange entry in the test with HLA-A*02:01 is on record as “++++ (≥75% = ++++)”.
In the same order, the values of “2 (ALLDVLVKL; listed as Homo sapiens) [compound 2]” are “+ (<20% = +)” and “++++ (≥75% = ++++)”.
Regarding “3 (FLLVPSPIWQL; listed as Homo sapiens) [compound 3]”, in the test with CD8+ T cells (Table 13b), the “Wells positive [%]” value was “+ (<20% = +)”. For the same substance, the Peptide exchange entry with HLA-A*02:01 is reported as “++++ (≥75% = ++++)”.
Taken in the same sequence, the figures for “4 (YLGDSHVLL; listed as Homo sapiens) [compound 4]” were “+ (<20% = +)” and “++++ (≥75% = ++++)”.
In the same order, the values of “6 (ALHDSPVYL; listed as Homo sapiens) [compound 6]” are “++ (20-49% = ++)” and “++++ (≥75% = ++++)”.
Taken in the same sequence, the figures for “7 (ALWEEVKATSL; listed as Homo sapiens) [compound 7]” were “+ (<20% = +)” and “++++ (≥75% = ++++)”.
For the substance “13 (FLDEGSLLRL; listed as Homo sapiens) [compound 13]”, the “Wells positive [%]” value in the test on CD8+ T cells (Table 13b) is “+ (<20% = +)”. Besides, in the test with HLA-A*02:01, the Peptide exchange result is recorded as “++++ (≥75% = ++++)”.
“18 (KMMTFFQGL; listed as Homo sapiens) [compound 18]”: the “Wells positive [%]” value with CD8+ T cells (Table 13b) was “++++ (≥70% = ++++)”. Further, the Peptide exchange result with HLA-A*02:01 is recorded as “++++ (≥75% = ++++)”.
In the same order, the values of “19 (MLLPWLPKL; listed as Homo sapiens) [compound 19]” are “+++ (50-69% = +++)” and “++++ (≥75% = ++++)”.
Take “26 (KLWTSLVNL; listed as Homo sapiens) [compound 26]”: the “Wells positive [%]” value in the test with CD8+ T cells (Table 13b) is “+++ (50-69% = +++)”. Further, the Peptide exchange result with HLA-A*02:01 is recorded as “++++ (≥75% = ++++)”.
In the same order, the values of “29 (LLWEFPSMA; listed as Homo sapiens) [compound 29]” are “++ (20-49% = ++)” and “++++ (≥75% = ++++)”.
In the same order, the values of “31 (VVLPIVITL; listed as Homo sapiens) [compound 31]” are “++ (20-49% = ++)” and “++++ (≥75% = ++++)”.
Taken in the same sequence, the figures for “33 (FASERPPSV; listed as Homo sapiens) [compound 33]” were “+++ (50-69% = +++)” and “++++ (≥75% = ++++)”.
“36 (FQVTRTTGV; listed as Homo sapiens) [compound 36]”: the “Wells positive [%]” value in the test on CD8+ T cells (Table 13b) is reported as “+ (<20% = +)”. For the same substance, the Peptide exchange result in the test with HLA-A*02:01 was “++++ (≥75% = ++++)”.
In the same order, the values of “37 (KILDEFYNV; listed as Homo sapiens) [compound 37]” are “+++ (50-69% = +++)” and “++++ (≥75% = ++++)”.
With “38 (SLSAWLPSL; listed as Homo sapiens) [compound 38]”, the “Wells positive [%]” value in the test with CD8+ T cells (Table 13b) is given as “+ (<20% = +)”. For the same substance, the Peptide exchange entry with HLA-A*02:01 is “++++ (≥75% = ++++)”.
Taken in the same sequence, the figures for “40 (FTLPFLVNL; listed as Homo sapiens) [compound 40]” were “+++ (50-69% = +++)” and “++++ (≥75% = ++++)”.
Taken in the same sequence, the figures for “46 (AMVEIIPKV; listed as Homo sapiens) [compound 46]” were “+ (<20% = +)” and “++++ (≥75% = ++++)”.
Taken in the same sequence, the figures for “47 (ALLPGVPGL; listed as Homo sapiens) [compound 47]” were “++ (20-49% = ++)” and “++++ (≥75% = ++++)”.
“48 (MLAEIHPKA; listed as Homo sapiens) [compound 48]”: the “Wells positive [%]” value with CD8+ T cells (Table 13b) is recorded as “+++ (50-69% = +++)”. Moreover, the Peptide exchange entry with HLA-A*02:01 is recorded as “++++ (≥75% = ++++)”.
As to “49 (FLWDPRDVVL; listed as Homo sapiens) [compound 49]”, the “Wells positive [%]” value in the test on CD8+ T cells (Table 13b) is “+ (<20% = +)”. For the same substance, the Peptide exchange result with HLA-A*02:01 is listed as “++++ (≥75% = ++++)”.
Taken in the same sequence, the figures for “50 (GLASYLDRV; listed as Homo sapiens) [compound 50]” were “+ (<20% = +)” and “++++ (≥75% = ++++)”.
As for “51 (GLLTQVHIL; listed as Homo sapiens) [compound 51]”, the “Wells positive [%]” value in the test with CD8+ T cells (Table 13b) is given as “+ (<20% = +)”. Besides, in the test with HLA-A*02:01, the Peptide exchange result is reported as “++++ (≥75% = ++++)”.
Take “65 (IAISQLTFV; listed as Homo sapiens) [compound 65]”: the “Wells positive [%]” value in the test on CD8+ T cells (Table 13b) is “+ (<20% = +)”. Further, the Peptide exchange entry in the test with HLA-A*02:01 is “++++ (≥75% = ++++)”.
In the same order, the values of “68 (KLLADAFKV; listed as Homo sapiens) [compound 68]” are “++++ (≥70% = ++++)” and “++++ (≥75% = ++++)”.
As to “74 (TLLSYSIPL; listed as Homo sapiens) [compound 74]”, in the test on CD8+ T cells (Table 13b), the “Wells positive [%]” value is on record as “+ (<20% = +)”. Further, in the test with HLA-A*02:01, the Peptide exchange entry is on record as “++++ (≥75% = ++++)”.
In the same order, the values of “96 (KIIEDLANTV; listed as Homo sapiens) [compound 96]” are “++ (20-49% = ++)” and “++++ (≥75% = ++++)”.
In the same order, the values of “101 (KLPEGHLPEV; listed as Homo sapiens) [compound 101]” are “+ (<20% = +)” and “++++ (≥75% = ++++)”.
For “102 (GLDPTQFRV; listed as Homo sapiens) [compound 102]”, in the test with CD8+ T cells (Table 13a), the “Wells positive [%]” value is reported as “++++ (>=70% = ++++)”.
Still for that read-out and setting: the result for “103 (SLVSYLDKV; listed as Homo sapiens) [compound 103]” reads “+ (<20% = +)”.
